The numbers were not newly measured in US20220400744A1, “POUCHED PRODUCT COMPRISING DISSOLVABLE COMPOSITION” (NICOVENTURES TRADING LIMITED, priority 2021, published 2022), which cites them from elsewhere.

Read-outs that look alike come from different tables or passages of the source.

The logP is the decadic logarithm of the partition coefficient of the neutral form, usually between octanol and water.

The conditions of data set [1]: for solubility in water / aqueous environment: water or aqueous environment (e.g., saliva).
For data set [2] the following is noted: for logP: Table 1, partition coefficient between octanol and water.
The conditions of data set [3]: when isolated; isomerizes to trans-bixin.

On to `CC(/C=C/C=C(C)/C=C/C(=O)O)=C\C=C\C=C(C)\C=C\C=C(C)\C=C\C(=O)O` (stereo in doubt) [norbixin, (2E,4E,6E,8E,10E,12E,14E,16E,18E)-4,8,13,17-tetramethylicosa-2,4,6,8,10,12,14,16,18-nonaenedioic acid], for which, in data set [1], the “solubility in water / aqueous environment” value is “water soluble”.
As to `C=C(C)[C@@H]1CCC(C)=C[C@H]1c1c(O)cc(CCCCC)cc1O` [CBD, cannabidiol, reference compound], the logP value result in data set [2] (CBD) is “about 6.5”. Moreover, the “solubility in water / aqueous environment” value in data set [1] is “insoluble”.
As for `COC(=O)/C=C/C(C)=C\C=C\C(C)=C\C=C\C=C(C)\C=C\C=C(C)\C=C\C(=O)O` [bixin, (2E,4E,6E,8E,10E,12E,14E,16Z,18E)-20-methoxy-4,8,13,17-tetramethyl-20-oxoicosa-2,4,6,8,10,12,14,16,18-nonaenoic acid], in data set [1] (fats and alcohols), the “solubility in fats and alcohols” value was “soluble”. In addition, in data set [1], the “solubility in water / aqueous environment” value was “insoluble”. Also, the chemical stability result in data set [3] is “chemically unstable”.
`CC(C)[C@@H]1CC[C@@H](C)C[C@H]1OC(=O)CCC(=O)O` [monomenthyl succinate]: the logP in data set [2] is given as 3.
Turning to `CN1CCCC1c1cccnc1` (centres unmarked) [nicotine, reference compound], the partitioning into octanol entry is “lower partitioning into octanol” in data set [2] (acidic pH, about 6.5 to about 4, protonated form) and “high partitioning into octanol” in data set [2] (alkaline pH, about 7.5 to about 9, free base form).
Turning to ethyl benzoic acid, the logP in data set [2] was 2.9.
On to isopropyl benzoic acid, for which the logP in data set [2] is reported as 3.5.
